Tests used:
[1] = system: T241 fibrosarcoma tumour vessels; experiment: CD31 staining and stereological quantification of tumour vascular parameters; type: in vivo, mice
Experimental: (§1) Paraffin-sections of tumours from control- or HRGP-treated animals were immunohistochemically (IHC) stained for CD31 and Ki67 using a goat anti-mouse CD31 antibody (1506; Santa Cruz), diluted 1:500 and incubated at +4° C. over night, and a rat anti-mouse Ki67 antibody (TEC-3/M7249; DAKO) diluted 1:50 and incubated for 30 min. at room temperature, according to standard IHC procedures. Detection of apoptotic cells by the TUNEL-technique was performed using ApopTag™ (Intergen Company) according to the manufacturer's protocol. Stereological quantification of vascular parameters was performed as described earlier by Weibel et al (1979) and Gundersen et al (1988). Quantification of the relative number of Tunel- and Ki67-positive cells was calculated from approximately 3000 cells per tumour section, in three tumours from each treatment group. Significance at the level of P<0.05 was calculated using Students t-test.
Sections of paraffin-embedded tumours from control (IgG)- or HRGP-treated mice were immunohistochemically stained for CD31 expression to visualise the vessels. […] Stereological quantification of vascular parameters was performed as described earlier by Weibel et al (1979) and Gundersen et al (1988). This method of quantifying tumour angiogenesis relates the length, volume and surface area of the vessels to tumour volume.

T241 fibrosarcoma cells [2] = experiment: fibrosarcoma tumour growth in mice (HRGP); type: in vivo; conditions: fibrosarcoma-bearing mice, summary of experiment 4
Experimental: Animal work was carried out at the local animal facility and was approved by the Uppsala University board of animal experimentation and thus performed according to the UKCCCR guidelines for the welfare of animals in experimental neoplasia (Workman et al (1988)). The mice were anesthetized with isoflurane (Forene; Abbott) during all manipulations. Female, 5 week old, C57BL6/1 mice (Mollegard/Bomhultgard, Denmark) were injected with 0.5×10^6 T241 fibrosarcoma cells subcutaneously (s.c.) into the left flank. Animals carrying palpable tumours were randomized (n=7-10 animals/treatment group) and received treatment with vehicle (PBS), 4 mg/kg/day of pHRGP or 5 mg/kg/day of human IgG or His-HRGP, given as daily subcutaneous injections in the right flank. The tumours were measured with a caliper once a day, in a blind procedure, and volumes were calculated by the formula […]. When the tumours reached the upper limit of 2 cm^3, the mice were sacrificed. Three animals in each group were perfused with 4% paraformaldehyde in PBS pH 7.4. Tumours were embedded in paraffin according to standard histological procedures and sectioned at […] thickness.
C57/bl6 mice were inoculated subcutaneously with T241 fibrosarcoma cells on their left flank and when the tumours were palpable (after 4-6 days), a daily treatment was initiated with HRGP or control (PBS; FIG. 2A, or human IgG; FIG. 2B). Endostatin was included in one study for comparison (FIG. 2B). The treatment was given as subcutaneous injections in the right flank until the size of the control tumours reached the upper limit of […] (11 days; FIG. 2A, 14 days; FIG. 2B). Injections with both pHRGP (4 mg/kg/day) and His-HRGP (5 mg/kg/day) led to a drastic reduction in tumour growth and at the time of sacrifice, the size of the tumours was reduced by 67% (FIG. 2A) and 61% (FIG. 2B) respectively, compared to control-treated animals. Endostatin treatment (25 mg/kg/day) lacked significant inhibitory effect on tumour growth in this model (32% decrease).

T241 fibrosarcoma cells [3] = experiment: TUNEL and Ki67 staining of tumour sections; type: in vivo, mice
Experimental: as §1

[4] = system: NIH 3T3 murine fibroblasts; experiment: chemotaxis assay in modified Boyden chamber, NIH 3T3 fibroblasts; type: cell-based; conditions: 100 ng/ml HRGP
Experimental: The porcine aortic endothelial (PAE) cell line overexpressing FGF receptor-1 (FGFR-1) (Wennström et al 1992) was cultured in Ham's F12/10% fetal bovine serum (FCS) and NIH 3T3 murine fibroblasts were cultured in Dulbecco's modified medium (DMEM)/10% newborn calf serum (NCS). F12, DMEM and serum were bought from Life Technologies. Primary bovine adrenal cortex capillary endothelial (BCE) cells were cultured on gelatin-coated dishes in DMEM/10% NCS and 2 ng/ml FGF-2 (Boehringer Mannheim). For chemotaxis assays, both PAE and NIH 3T3 cells were serum-starved over night in 0.1% BSA and BCE cells in 0.5% NCS. Human embryonic kidney (HEK) 293-EBNA cells were cultured in DMEM/10% FCS. Approximately every second month they were given 0.25 mg/ml G418 (Calbiochem) to ensure positive selection of the EBNA-1 expressing cells.
A migration assay was performed in a modified Boyden chamber as described earlier (Auerbach et al., 1991) using micropore polycarbonate filters (8 μm thick, 8 μm pore) coated with type-1 collagen solution at 100 μg/ml (Vitrogen 100, Collagen Corp). […] After 5 h at 37° C., migrated cells were stained with Giemsa and counted using an image analysis software (Easy Image Analysis) from Tekno Optik AB, Sweden. All samples were analysed in at least six parallel wells for each treatment.

[5] = in vivo; cited from earlier work
[6] = system: chicken chorioallantoic membrane (CAM); experiment: chicken chorioallantoic membrane (CAM) angiogenesis assay; type: in vivo; conditions: FGF-2 or VEGF-A 0.2 mg per filter, HRGP 3 mg per filter, three days
Experimental: The effect of HRGP on anglogenesis was tested in the chicken chorioallantoic membrane (CAM) assay.
The conditions for the chorioallantoic membrane (CAM) assay followed essentially a previously described procedure (Friedlander et al (1995), Dixelius et al, (2000)). FGF-2 (Boehringer Mannheim) and VEGF-A (Peprotech) was used at 0.2 mg per filter and purified pHRGP or rHRGP at 3 mg per filter. The treated CAM's were inspected in a light microscope and the score, from 0 (low) to 3 (high) was based on the number of vessel branch points. Average values for 5-6 embryos were recorded.
A filter disc soaked in vehicle or growth factor, with or without HRGP, was placed on top of the CAM in the vicinity of a large vessel and incubated for three days. Treatment of the CAM with growth factors, such as FGF-2, stimulated angiogenesis (FIG. 1C; Table 1).

Q: What does the source list for “HRGP: mature human Histidine Rich Glycoprotein, about 507 amino acid residues”?
A: vessel diameter in tumours, visual inspection of CD31 staining ([1]; HRGP-treated vs control): reduced vessel diameter; vascular parameters (length, volume, surface area of vessels related to tumour volume) ([1]; tumours from HRGP-treated vs IgG-treated mice): all six vascular parameters determined were reduced; reduction in tumour volume compared to control-treated mice (T241 fibrosarcoma cells [2]): more than 60%; tumour apoptosis compared to control group (T241 fibrosarcoma cells [3]; TUNEL staining, HRGP vs IgG control): No difference in tumour apoptosis; percentage of apoptotic (TUNEL-positive) cells in the tumours (T241 fibrosarcoma cells [3]; tumours from HRGP-treated mice): less than 1%; proportion of proliferating (Ki67-positive) cells in tumours (T241 fibrosarcoma cells [3]; tumours from HRGP-treated mice, control 43%): 29%; FGF-2-induced chemotaxis of NIH 3T3 murine fibroblasts [4]: not inhibited; plasma half-life [5]: three days; growth factor-induced CAM angiogenesis (newly formed vessels) [6]: effectively inhibited
